Test results from patent publication US20030092691A1 (priority 2001, published 2003).

Test: Study of solubility of micronized progesterone in various oils (concentration at saturation)
Type: physicochemical
Settings: in refined olive oil; one hour stirring at room temperature, filtered 0.45 μm
Protocol: The saturated solutions were then prepared as follows: The saturated solutions in each oil were maintained for one hour with stirring at room temperature, and were then filtered on a nylon filter syringe with a diameter of 25 mm, at 0.45 μm.

CONCENTRATION AT SATURATION: 19560 µg/mL
Compound: CC(=O)[C@H]1CC[C@H]2[C@@H]3CCC4=CC(=O)CC[C@]4(C)[C@H]3CC[C@]12C [Micronized progesterone, progesterone]
